In patent US20110294772A1, “USE OF CYCLOSQUARAMIDE COMPOUNDS AS ANTI-TUMOUR AGENTS” (priority 2008, published 2011):
Where “and” joins values, the source holds several entries; their conditions need not be identical. Identical values can stand only once.

Legend:
Karpas-45 = assay: cell viability assay; assay type: cell-based, human; settings: Karpas-45 T-cell lymphoma, 72 h, with respect to untreated control cells
Hut = assay: cell viability assay; assay type: cell-based, human; settings: Hut T-cell lymphoma, 72 h, with respect to untreated control cells
Rec-1 = assay: cell viability assay; assay type: cell-based, human; settings: Rec-1 B-cell lymphoma (MCL), 48 h, with respect to untreated control cells
PKC-beta1 = PKC-beta1 (Homo sapiens, UniProt P05771); assay: in vitro kinase assay; assay type: biochemical
Protocol: (§1) Specifically, against a panel of 210 kinases representative of the human kinome, the compounds tested inhibited by […] the activity of 25 of them in in Vitro assays (Table 1).
(§2) The IC50 was determined for the most sensitive kinases to compound 10, obtaining values for said parameter, largely in the micromolar range. For this purpose, the 25 kinases inhibited more than 80% by the compound in in vitro assays were selected.

CDK4/CycD3 = CDK4/CycD3 (Homo sapiens, UniProt P11802); assay: in vitro kinase assay; assay type: biochemical
Protocol: as §1, §2

MET = MET (Homo sapiens, UniProt P08581); assay: in vitro kinase assay; assay type: biochemical
Protocol: as §1, §2

ACK1 = ACK1 (Homo sapiens, UniProt Q07912); assay: in vitro kinase assay; assay type: biochemical
Protocol: as §1, §2

CSK = CSK (Homo sapiens, UniProt P41240); assay: in vitro kinase assay; assay type: biochemical
Protocol: as §1, §2

CDK5/p25NCK = CDK5/p25NCK (Homo sapiens, UniProt Q00535); assay: in vitro kinase assay; assay type: biochemical
Protocol: as §1, §2

PAK4 = PAK4 (Homo sapiens, UniProt O96013); assay: in vitro kinase assay; assay type: biochemical
Protocol: as §1, §2

NLK = NLK (Homo sapiens, UniProt Q9UBE8); assay: in vitro kinase assay; assay type: biochemical
Protocol: as §1, §2

VRK1 = VRK1 (Homo sapiens, UniProt Q99986); assay: in vitro kinase assay; assay type: biochemical
Protocol: as §1, §2

PLK1 = PLK1 (Homo sapiens, UniProt P53350); assay: in vitro kinase assay; assay type: biochemical
Protocol: as §1, §2

CDK7/CycH/Mat1 = CDK7/CycH/Mat1 (Homo sapiens, UniProt P50613); assay: in vitro kinase assay; assay type: biochemical
Protocol: as §1, §2

Granta-519 = assay: cell viability assay; assay type: cell-based, human; settings: Granta-519 B-cell lymphoma (MCL), 48 h, with respect to untreated control cells
U87 = assay: cell viability assay; assay type: cell-based, human; settings: U87 glioblastoma, 72 h, with respect to untreated control cells
[1] = tested on: panel of NCl60 cell lines; assay: IC50 in NCI60 panel (overall); assay type: cell-based; settings: Homo sapiens, general order, read-out: antitumor activity (IC50) in general
Protocol: (§3) On the other hand, the values of IC50 were determined in the panel of NCl60 cell lines for compound 10.
(§4) A total of 2 independent experiments were carried out with assays in triplicate for the compound and cell line. All those assays where an IC50 value was not reached in the highest concentration of 1E-05 M are represented by “>1E-05”. In these cases, the standard deviation cannot be calculated and for that reason it is calculated as “-”.

SK-MEL-28 (Melanoma) = assay: NCI60 panel IC50; assay type: cell-based, human
Protocol: as §3, §4

NCI-H522 (Lung) = assay: NCI60 panel IC50; assay type: cell-based, human; settings: lung NCl-H522
Protocol: as §3, §4

HCT-15 (Colon) = assay: NCI60 panel IC50; assay type: cell-based, human
Protocol: as §3, §4

LOX-IMVI (Melanoma) = assay: NCI60 panel IC50; assay type: cell-based, human
Protocol: as §3, §4

OVCAR-8 (Ovarian) = assay: NCI60 panel IC50; assay type: cell-based, human
Protocol: as §3, §4

HT-29 (Colon) = assay: NCI60 panel IC50; assay type: cell-based, human
Protocol: as §3, §4

786-O (Renal) = assay: NCI60 panel IC50; assay type: cell-based, human
Protocol: as §3, §4

OVCAR-4 (Ovarian) = assay: NCI60 panel IC50; assay type: cell-based, human
Protocol: as §3, §4

OVCAR-5 (Ovarian) = assay: NCI60 panel IC50; assay type: cell-based, human
Protocol: as §3, §4

Jeko-1 = assay: cell viability assay; assay type: cell-based, human
Protocol: The IC50 in cell viability assays were determined for some of the macrocycles prepared in Jeko-1 (B-cell lymphoma (MCL) type cells. With a total incubation period of 48 h.

JVM-2 = assay: cell viability assay; assay type: cell-based, human; settings: JVM-2 B-cell lymphoma (MCL), 48 h, with respect to untreated control cells
[2] = tested on: panel of 210 kinases representative of the human kinome; assay: in vitro kinase panel; assay type: biochemical; settings: 25 kinases selected for IC50, in vitro assays
Protocol: as §1, §2

Chain of CDK4/CycD3 (P11802 whole entry): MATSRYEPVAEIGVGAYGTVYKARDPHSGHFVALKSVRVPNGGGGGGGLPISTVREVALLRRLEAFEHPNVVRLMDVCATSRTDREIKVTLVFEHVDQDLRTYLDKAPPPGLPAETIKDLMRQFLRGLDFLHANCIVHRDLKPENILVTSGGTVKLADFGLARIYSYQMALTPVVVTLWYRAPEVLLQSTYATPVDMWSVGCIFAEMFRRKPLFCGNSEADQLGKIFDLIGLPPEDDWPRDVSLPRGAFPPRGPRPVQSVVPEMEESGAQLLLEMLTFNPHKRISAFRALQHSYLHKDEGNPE
Chain of CDK4/CycD3 (P30281 whole entry partner): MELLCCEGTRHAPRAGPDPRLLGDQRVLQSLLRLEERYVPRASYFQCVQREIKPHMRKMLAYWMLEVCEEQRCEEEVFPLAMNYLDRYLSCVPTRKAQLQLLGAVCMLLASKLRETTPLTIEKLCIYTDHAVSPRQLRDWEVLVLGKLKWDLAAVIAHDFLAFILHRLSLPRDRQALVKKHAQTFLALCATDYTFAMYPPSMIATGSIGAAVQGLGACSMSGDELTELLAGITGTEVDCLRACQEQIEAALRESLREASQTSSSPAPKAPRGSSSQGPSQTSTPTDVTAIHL
Chain of CDK5/p25NCK (Q00535 whole entry): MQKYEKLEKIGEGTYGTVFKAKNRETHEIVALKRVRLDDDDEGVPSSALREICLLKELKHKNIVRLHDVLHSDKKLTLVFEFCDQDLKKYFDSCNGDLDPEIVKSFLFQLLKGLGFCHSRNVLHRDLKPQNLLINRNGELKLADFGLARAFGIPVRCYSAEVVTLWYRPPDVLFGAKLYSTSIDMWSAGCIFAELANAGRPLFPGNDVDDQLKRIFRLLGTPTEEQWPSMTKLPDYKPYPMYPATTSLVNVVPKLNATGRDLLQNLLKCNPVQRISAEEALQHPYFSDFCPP
Chain of CDK5/p25NCK (Q15078 99-307 partner limits assumed): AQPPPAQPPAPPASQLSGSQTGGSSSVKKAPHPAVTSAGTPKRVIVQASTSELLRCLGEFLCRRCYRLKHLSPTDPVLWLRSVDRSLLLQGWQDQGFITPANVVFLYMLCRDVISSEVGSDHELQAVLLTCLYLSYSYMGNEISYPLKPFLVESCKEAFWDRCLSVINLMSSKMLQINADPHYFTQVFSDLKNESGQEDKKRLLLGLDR
Chain of MET (P08581 25-1390): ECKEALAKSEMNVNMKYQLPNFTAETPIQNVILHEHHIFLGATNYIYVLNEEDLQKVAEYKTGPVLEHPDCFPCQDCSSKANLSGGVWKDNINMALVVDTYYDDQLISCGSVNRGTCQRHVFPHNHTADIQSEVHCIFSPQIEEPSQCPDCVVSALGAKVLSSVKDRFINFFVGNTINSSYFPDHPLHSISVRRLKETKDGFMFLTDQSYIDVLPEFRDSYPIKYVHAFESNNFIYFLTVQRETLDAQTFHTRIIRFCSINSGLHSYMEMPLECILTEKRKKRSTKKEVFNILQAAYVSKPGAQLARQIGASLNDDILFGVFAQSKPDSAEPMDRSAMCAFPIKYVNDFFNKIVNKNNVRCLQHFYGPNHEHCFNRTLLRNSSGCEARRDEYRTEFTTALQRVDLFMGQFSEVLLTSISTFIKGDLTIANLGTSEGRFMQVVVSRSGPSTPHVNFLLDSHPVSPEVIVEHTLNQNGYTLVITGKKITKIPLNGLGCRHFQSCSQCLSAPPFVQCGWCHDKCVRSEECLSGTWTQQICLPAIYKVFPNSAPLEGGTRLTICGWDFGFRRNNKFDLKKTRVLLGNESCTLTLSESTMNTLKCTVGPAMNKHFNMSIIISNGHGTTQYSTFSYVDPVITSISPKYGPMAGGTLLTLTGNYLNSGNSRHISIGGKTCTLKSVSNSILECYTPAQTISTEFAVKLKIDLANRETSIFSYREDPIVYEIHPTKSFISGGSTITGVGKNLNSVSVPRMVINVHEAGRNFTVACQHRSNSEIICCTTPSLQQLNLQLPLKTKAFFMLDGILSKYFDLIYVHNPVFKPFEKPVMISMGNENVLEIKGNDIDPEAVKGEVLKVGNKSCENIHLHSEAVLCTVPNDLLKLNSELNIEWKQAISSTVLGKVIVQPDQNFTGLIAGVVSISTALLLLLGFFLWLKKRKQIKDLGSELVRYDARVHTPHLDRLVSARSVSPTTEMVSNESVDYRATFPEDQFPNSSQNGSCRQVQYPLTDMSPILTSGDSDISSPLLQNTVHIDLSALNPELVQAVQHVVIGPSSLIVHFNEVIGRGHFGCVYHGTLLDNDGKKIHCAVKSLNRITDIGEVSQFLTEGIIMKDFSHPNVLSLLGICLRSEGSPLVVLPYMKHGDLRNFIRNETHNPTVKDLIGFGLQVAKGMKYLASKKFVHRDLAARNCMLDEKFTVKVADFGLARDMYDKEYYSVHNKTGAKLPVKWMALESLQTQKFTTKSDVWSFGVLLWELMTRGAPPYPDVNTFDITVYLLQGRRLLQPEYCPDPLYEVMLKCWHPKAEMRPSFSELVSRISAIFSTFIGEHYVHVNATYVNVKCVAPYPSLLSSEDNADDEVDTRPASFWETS
Chain of NLK (Q9UBE8 whole entry): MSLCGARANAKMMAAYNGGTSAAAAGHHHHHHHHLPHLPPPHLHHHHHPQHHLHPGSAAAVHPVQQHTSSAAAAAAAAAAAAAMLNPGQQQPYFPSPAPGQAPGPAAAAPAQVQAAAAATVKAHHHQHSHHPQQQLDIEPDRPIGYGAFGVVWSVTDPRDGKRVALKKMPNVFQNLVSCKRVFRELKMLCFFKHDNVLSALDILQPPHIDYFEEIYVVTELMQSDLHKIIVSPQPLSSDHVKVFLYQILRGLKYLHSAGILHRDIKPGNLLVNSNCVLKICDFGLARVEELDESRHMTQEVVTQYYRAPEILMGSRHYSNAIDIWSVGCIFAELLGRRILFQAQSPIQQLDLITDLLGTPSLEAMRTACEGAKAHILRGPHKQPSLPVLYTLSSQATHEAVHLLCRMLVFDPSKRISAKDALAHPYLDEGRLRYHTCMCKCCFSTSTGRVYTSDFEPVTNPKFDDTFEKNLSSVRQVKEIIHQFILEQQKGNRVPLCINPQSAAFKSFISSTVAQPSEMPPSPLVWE
Chain of ACK1 (Q07912 whole entry): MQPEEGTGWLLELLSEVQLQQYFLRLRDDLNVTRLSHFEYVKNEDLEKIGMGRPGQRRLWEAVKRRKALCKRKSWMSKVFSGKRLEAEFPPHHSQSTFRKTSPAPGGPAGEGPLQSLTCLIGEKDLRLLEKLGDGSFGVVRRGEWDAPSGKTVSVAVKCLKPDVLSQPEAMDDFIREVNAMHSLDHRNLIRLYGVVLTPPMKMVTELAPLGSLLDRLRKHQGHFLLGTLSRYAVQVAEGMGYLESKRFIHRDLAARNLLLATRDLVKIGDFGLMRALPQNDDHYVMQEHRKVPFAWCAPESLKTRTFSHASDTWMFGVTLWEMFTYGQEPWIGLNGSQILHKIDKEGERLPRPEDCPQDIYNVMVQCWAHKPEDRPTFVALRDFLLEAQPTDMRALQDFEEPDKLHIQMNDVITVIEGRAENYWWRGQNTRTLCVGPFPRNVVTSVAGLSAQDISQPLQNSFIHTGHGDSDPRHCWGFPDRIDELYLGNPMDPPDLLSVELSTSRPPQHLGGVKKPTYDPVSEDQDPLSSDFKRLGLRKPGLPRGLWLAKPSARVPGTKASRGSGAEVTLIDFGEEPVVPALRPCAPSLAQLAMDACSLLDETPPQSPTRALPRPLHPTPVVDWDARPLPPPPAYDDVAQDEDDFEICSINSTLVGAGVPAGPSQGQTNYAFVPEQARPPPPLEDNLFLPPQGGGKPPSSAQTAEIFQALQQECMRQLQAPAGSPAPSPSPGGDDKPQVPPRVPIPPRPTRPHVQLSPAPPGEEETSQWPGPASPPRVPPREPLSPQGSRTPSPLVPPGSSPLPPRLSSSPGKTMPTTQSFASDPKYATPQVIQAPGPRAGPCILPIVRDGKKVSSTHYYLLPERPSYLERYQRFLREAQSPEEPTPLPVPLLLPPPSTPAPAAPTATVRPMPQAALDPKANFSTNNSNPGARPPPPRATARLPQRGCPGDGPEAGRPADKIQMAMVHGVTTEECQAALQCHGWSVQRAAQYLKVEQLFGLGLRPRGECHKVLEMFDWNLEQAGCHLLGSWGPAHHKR
Chain of PAK4 (O96013 whole entry): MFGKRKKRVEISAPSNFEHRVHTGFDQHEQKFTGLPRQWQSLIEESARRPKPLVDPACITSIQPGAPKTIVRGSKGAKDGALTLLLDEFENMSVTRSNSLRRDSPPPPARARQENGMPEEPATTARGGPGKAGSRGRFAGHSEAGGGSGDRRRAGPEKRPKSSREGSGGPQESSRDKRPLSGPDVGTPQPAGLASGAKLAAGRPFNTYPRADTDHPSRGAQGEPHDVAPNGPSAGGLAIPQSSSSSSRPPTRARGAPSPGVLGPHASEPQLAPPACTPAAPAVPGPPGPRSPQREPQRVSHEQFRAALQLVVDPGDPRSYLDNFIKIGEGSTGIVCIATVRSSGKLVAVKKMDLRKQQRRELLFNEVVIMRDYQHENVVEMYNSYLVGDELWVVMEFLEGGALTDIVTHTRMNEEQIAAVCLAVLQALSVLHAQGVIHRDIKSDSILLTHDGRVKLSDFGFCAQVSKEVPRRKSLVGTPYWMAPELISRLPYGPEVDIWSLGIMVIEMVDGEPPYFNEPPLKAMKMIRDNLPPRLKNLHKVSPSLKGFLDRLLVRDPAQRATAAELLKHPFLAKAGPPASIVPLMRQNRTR
Chain of VRK1 (Q99986 whole entry): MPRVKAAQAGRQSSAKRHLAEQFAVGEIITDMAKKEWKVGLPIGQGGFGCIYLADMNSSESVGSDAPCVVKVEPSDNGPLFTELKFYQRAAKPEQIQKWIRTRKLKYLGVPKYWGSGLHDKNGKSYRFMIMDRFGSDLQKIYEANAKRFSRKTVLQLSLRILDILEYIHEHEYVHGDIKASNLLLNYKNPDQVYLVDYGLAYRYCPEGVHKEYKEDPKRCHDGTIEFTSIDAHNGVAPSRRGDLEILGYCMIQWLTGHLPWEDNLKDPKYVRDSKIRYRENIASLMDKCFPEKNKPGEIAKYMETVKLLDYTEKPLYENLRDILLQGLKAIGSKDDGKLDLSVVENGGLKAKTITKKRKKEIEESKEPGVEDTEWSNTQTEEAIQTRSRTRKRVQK

- IC50 (PKC-beta1): 7.6 µM
- IC50 (CDK4/CycD3): 5.4 µM and 5.3 µM
- IC50 (MET): 3.7 µM
- inhibition of kinase Ack1 (ACK1): 85%
- IC50 (CSK): 13 µM and 7.2 µM
- inhibition of kinase cdk5 (CDK5/p25NCK; in vitro kinase assay): 80%
- IC50 (CDK5/p25NCK; kinase CDK5/p25NCK, in vitro): 9.2 µM
- IC50 (PAK4): 4.3 µM
- IC50 (NLK): 4.3 µM
- IC50 (VRK1): 2.4 µM
- IC50 (PLK1): 26 µM
- IC50 (CDK7/CycH/Mat1): 28 µM
- inhibition of the 25 most sensitive kinases [2]: more than 80%
SMILES: CN1CCCNc2c(c(=O)c2=O)NCCCN(C)CCCNc2c(c(=O)c2=O)NCCCN(C)CCCNc2c(c(=O)c2=O)NCCCN(C)CCCNc2c(c(=O)c2=O)NCCCN(C)CCCNc2c(c(=O)c2=O)NCCC1 [Compound 10]
- % Cell viability (Karpas-45): 13%
- % Cell viability (Hut): 60%
- % Cell viability (Rec-1): 44%
- % Cell viability (Granta-519): 58%
- % Cell viability (U87): 25%
- IC50 [1]: 1 to 10 µM
- IC50 (SK-MEL-28 (Melanoma); Homo sapiens, SK-MEL-28 (Melanoma), NCI60 panel, highest concentration 1E-05 M): > 10 µM
- sensitivity of the line to the tested compound (SK-MEL-28 (Melanoma); melanoma SK-MEL-28): resistant
- sensitivity of the line to the tested compound (NCI-H522 (Lung)): resistant
- IC50 (HCT-15 (Colon); Homo sapiens, HCT-15 (Colon), NCI60 panel, highest concentration 1E-05 M): > 10 µM
- sensitivity of the line to the tested compound (HCT-15 (Colon); colon HCTI5): resistant
- IC50 (LOX-IMVI (Melanoma); Homo sapiens, LOX-IMVI (Melanoma), NCI60 panel, highest concentration 1E-05 M): > 10 µM
- sensitivity of the line to the tested compound (LOX-IMVI (Melanoma); melanoma LOX-IMVI): resistant
- IC50 (OVCAR-8 (Ovarian); Homo sapiens, OVCAR-8 (Ovarian), NCI60 panel, highest concentration 1E-05 M): > 10 µM
- sensitivity of the line to the tested compound (OVCAR-8 (Ovarian); ovarian OVCAR-8): resistant
- IC50 (HT-29 (Colon); Homo sapiens, HT-29 (Colon), NCI60 panel, highest concentration 1E-05 M): > 10 µM
- sensitivity of the line to the tested compound (HT-29 (Colon); colon HT-29): resistant
- IC50 (786-O (Renal); Homo sapiens, 786-0, 786-O (Renal), NCI60 panel, highest concentration 1E-05 M): > 10 µM
- sensitivity of the line to the tested compound (786-O (Renal); renal 786-O): resistant
- IC50 (OVCAR-4 (Ovarian); Homo sapiens, OVCAR-4 (Ovarian), NCI60 panel, highest concentration 1E-05 M): > 10 µM
- sensitivity of the line to the tested compound (OVCAR-4 (Ovarian); ovarian OVCAR-4): resistant
- IC50 (OVCAR-5 (Ovarian); Homo sapiens, OVCAR-5 (Ovarian), NCI60 panel, highest concentration 1E-05 M): > 10 µM
- sensitivity of the line to the tested compound (OVCAR-5 (Ovarian); ovarian OVCAR-5): resistant
- IC50 (Jeko-1; Homo sapiens, JeKo-1, 48 h, cell viability, total incubation period 48 h, read-out: IC50 (μM) against Jeko-1 cells): 30.7 µM
- % Cell viability (Jeko-1; Jeko-1 B-cell lymphoma (MCL), 48 h, with respect to untreated control cells): 46%
- % Cell viability (JVM-2): 24%
